Data from patent US20250136618A1, “ANTIBIOTIC PYRAZINOTHIAZINE DERIVATIVES AND PROCESS OF PREPARATION THEREOF” (Bugworks Research India PVT Ltd, priority 2021, published 2025).
In brackets after ≈: the same amount, converted by molar mass.

Assays:
Format in all cases: cell-based
[1] = system: CHO-K1 cells; test: In-vitro micronucleus assay
Procedure: Genetic toxicology studies were performed on the compounds of the present disclosure to assess their ability to cause DNA damage. The in-vitro micronucleus assay measured the concentration (μM) of the compound at which micronuclei formation occurred. A micronuclei formation at lower concentration indicates more genetic damage or genotoxicity.
Micronucleus formation is a hallmark of genotoxicity, and the micronucleus assay is an important component of genotoxicity screening. Micronuclei are chromatin-containing bodies that represent fragments or even whole chromosomes that were not incorporated into a daughter cell nucleus at mitosis. The purpose of the assay is to detect agents that induce chromosome damage leading to the induction of micronuclei in interphase cells. The in vitro micronucleus assay was conducted in CHO-K1 cells according to the procedure described by Diaz, D et al [Mutat Res. 630(1-2):1-13. […] The formation of the micronucleus is identified by image-based high content analysis from binucleated cells.

[2] = biological target: hERG potassium channel (Homo sapiens (Human), UniProt Q12809); test: hERG inhibition assay (Qpatch HTX automated electrophysiology); settings: CHO cell line expressing hERG, whole-cell patch clamp
Sequence of hERG potassium channel (Q12809 whole entry): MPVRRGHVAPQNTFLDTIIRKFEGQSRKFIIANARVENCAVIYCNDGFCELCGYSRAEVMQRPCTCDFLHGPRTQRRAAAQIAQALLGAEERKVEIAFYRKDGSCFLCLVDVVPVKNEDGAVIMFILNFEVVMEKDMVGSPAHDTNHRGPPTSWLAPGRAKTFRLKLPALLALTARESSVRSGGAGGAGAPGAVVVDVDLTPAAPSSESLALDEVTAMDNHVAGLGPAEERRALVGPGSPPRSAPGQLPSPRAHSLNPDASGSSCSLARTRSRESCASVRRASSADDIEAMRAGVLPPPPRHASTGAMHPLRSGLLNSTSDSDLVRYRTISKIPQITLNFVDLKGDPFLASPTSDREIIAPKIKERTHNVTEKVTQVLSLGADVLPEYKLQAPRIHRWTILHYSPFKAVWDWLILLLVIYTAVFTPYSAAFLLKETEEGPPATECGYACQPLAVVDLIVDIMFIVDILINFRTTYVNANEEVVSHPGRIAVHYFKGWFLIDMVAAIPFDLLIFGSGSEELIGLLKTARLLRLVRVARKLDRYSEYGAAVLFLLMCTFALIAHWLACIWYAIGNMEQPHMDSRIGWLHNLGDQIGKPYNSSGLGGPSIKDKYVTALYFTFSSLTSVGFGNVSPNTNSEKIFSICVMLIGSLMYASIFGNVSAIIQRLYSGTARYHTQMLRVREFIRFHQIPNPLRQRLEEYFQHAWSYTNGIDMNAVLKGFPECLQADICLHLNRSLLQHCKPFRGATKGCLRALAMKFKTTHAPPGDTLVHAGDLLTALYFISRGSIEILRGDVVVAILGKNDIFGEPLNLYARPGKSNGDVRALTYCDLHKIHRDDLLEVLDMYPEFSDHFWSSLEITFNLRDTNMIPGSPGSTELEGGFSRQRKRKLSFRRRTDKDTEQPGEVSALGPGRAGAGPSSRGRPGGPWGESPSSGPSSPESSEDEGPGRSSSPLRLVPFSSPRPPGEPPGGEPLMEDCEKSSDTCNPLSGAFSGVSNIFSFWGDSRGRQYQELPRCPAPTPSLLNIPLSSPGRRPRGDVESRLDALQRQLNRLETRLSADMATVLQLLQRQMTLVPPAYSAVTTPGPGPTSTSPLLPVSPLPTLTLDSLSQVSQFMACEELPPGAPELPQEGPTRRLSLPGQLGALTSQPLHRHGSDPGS
Procedure: Electrophysiological recordings were made from a Chinese Hamster Ovary cell line stably expressing the full-length hERG potassium channel. Single cell ionic currents were measured in whole-cell patch clamp configuration at room temperature (21-23° C.) using the Qpatch HTX platform (Sophion). Intracellular solution contained (mM): 120 KF, 20 KCl, 10 EGTA, 10 HEPES and was buffered to pH 7.3. […] Cells were clamped at a holding potential of −80 mV. Cells were stepped to +20 mV for 2 s then −40 mV for 3 s before returning to the holding potential. […] Compounds were then incubated for 2 minutes prior to a second measurement of ion channel current using an identical pulse train.

[3] = system: Klebsiella pneumoniae ATCC 13883; test: Minimum Inhibitory Concentration (MIC) in LB media; settings: Klebsiella pneumoniae, ATCC13883, read-out: Minimum Inhibitory Concentration K. pneumoniae ATCC 13883
Text: (§1) The compounds of Formula Ia and Formula Ib are of interest due to their potent antibacterial effects. The ability of the compounds disclosed herein to achieve an antibacterial effect may be evaluated with regard to their ability to inhibit the growth of bacterial species like Escherichia coli ATCC 25922, Staphylococcus aureus ATCC 29213, Klebsiella pneumoniae ATCC 13883, Acinetobacter baumannii ATCC 19606, Pseudomonas aeruginosa ATCC 27853 and Enterococcus faecalis ATCC 29212 using an assay based on the following Minimum Inhibitory Concentration (MIC) protocol:
(§2) The test bacteria were grown in Luria Bertani Broth (HIMEDIA M1245), 25 g of the powder was dissolved in 1000 ml distilled water and sterilized by autoclaving at 15 lbs pressure (121° C.) for 20 minutes. The medium sterility was checked by incubating at 37° C. for a period of 48 h. Bacterial cultures that were stored as glycerol stocks at −80° C. were subcultured on LB agar plates to obtain isolated colonies. A single colony of each strain was cultured in LB broth. The cultures were incubated at 37° C., 200 rpm till they reached an optical density (OD at 600 nm) of 0.8 to 1. This log phase culture was diluted in LB broth to a cell number of 5-8*10^5 CFU/mL to be used as inoculum for MIC experiments. Test compounds were dissolved in dimethyl sulfoxide (DMSO) to a stock concentration of 4 mg/ml. A two-fold dilution series of this DMSO stock was prepared in a 96 well V bottom microtitre plate from rows A to H. A 3 μL volume of these dilutions are transferred to a 96-well flat bottom microtitre assay plate. Controls to monitor the effects of DMSO and media sterility were included. Each well was inoculated with 150 μL of the above diluted culture. The plates were incubated at 37° C. overnight in a humidified incubator. The following morning, the plates were read using a Spectrophotometer at 600 nm wavelength. […] The antibacterial activity (MIC) determined against representative gram-positive (S. aureus, E. faecalis) and gram-negative (E. coli, Aeruginosa, K. pneumoniae, and A. baumannii) pathogen are reported Table 1.

[4] = system: Enterococcus faecalis ATCC 29212; test: Minimum Inhibitory Concentration (MIC) in LB media; settings: Enterococcus faecalis, ATCC29212, read-out: Minimum Inhibitory Concentration E. faecalis ATCC 29212
Text: as §1, §2

[5] = system: Escherichia coli ATCC 25922; test: Minimum Inhibitory Concentration (MIC) in LB media; settings: Escherichia coli, ATCC25922, read-out: Minimum Inhibitory Concentration E. coli ATCC 25922
Text: as §1, §2

[6] = system: Pseudomonas aeruginosa ATCC 27853; test: Minimum Inhibitory Concentration (MIC) in LB media; settings: Pseudomonas aeruginosa, ATCC27853
Text: as §1, §2

[7] = system: Acinetobacter baumannii ATCC 19606; test: Minimum Inhibitory Concentration (MIC) in LB media; settings: Acinetobacter baumannii, ATCC19606
Text: as §1, §2

[8] = system: Staphylococcus aureus ATCC 29213; test: Minimum Inhibitory Concentration (MIC) in LB media; settings: Staphylococcus aureus, ATCC29213, read-out: Minimum Inhibitory Concentration S. aureus ATCC 29213
Text: as §1, §2

[9] = system: Citrobacter freundii; test: MIC90 determination, clinical strains (CLSI); settings: N=19
[10] = system: Escherichia coli; test: MIC90 determination, clinical strains (CLSI); settings: N=38
[11] = system: Pseudomonas aeruginosa; test: MIC90 determination, clinical strains (CLSI); settings: N=34
[12] = system: Serratia marcescens; test: MIC90 determination, clinical strains (CLSI); settings: N=15
[13] = system: Proteus mirabilis; test: MIC90 determination, clinical strains (CLSI); settings: N=12
[14] = system: Acinetobacter baumannii; test: MIC90 determination, clinical strains (CLSI); settings: N=38
[15] = system: Klebsiella aerogenes, K. oxytoca; test: MIC90 determination, clinical strains (CLSI); settings: N=17
[16] = system: Providencia rettgeri, P. stuartii; test: MIC90 determination, clinical strains (CLSI); settings: N=12
[17] = system: Morganella morganii; test: MIC90 determination, clinical strains (CLSI); settings: N=11
[18] = system: Klebsiella pneumoniae; test: MIC90 determination, clinical strains (CLSI); settings: N=86
[19] = system: Enterobacter cloacae; test: MIC90 determination, clinical strains (CLSI); settings: N=26

[2H]C([2H])([2H])N1C(=O)CNc2ccc(OCCNCC3CN(c4cnc5c(n4)NC(=O)CS5)C(=O)O3)nc21 (stereo in doubt) [Compound 9, (R)-5-(((2-((4-(methyl-d3)-3-oxo-1,2,3,4-tetrahydropyrido[2,3-b]pyrazin-6-yl)oxy)ethyl)amino)methyl)-3-(3-oxo-3,4-dihydro-2H-pyrazino[2,3-b][1,4]thiazin-6-yl) oxazolidin-2-one]
genotoxicity risk (in words) [1]: completely devoid of any genotoxicity risk | % (in-vitro micronucleus assay) ([1]; Chinese hamster): 0.51% | In vitro micronucleus forming concentration ([1]; Chinese hamster): >1000 µM | IC50 [2]: 141 µM | MIC [3]: 0.06 µg/mL (≈ 0.123 µM) | MIC [4]: 0.03 µg/mL (≈ 0.0613 µM) | MIC [5]: 0.06 µg/mL (≈ 0.123 µM) | MIC [6]: 1 µg/mL (≈ 2.04 µM) | MIC [7]: 0.03 µg/mL (≈ 0.0613 µM) | MIC [8]: < 0.015 µg/mL

O=C(O)c1cn(C2CC2)c2cc(N3CCNCC3)c(F)cc2c1=O [Ciprofloxacin, reference compound]
MIC [3]: 0.05 µg/mL (≈ 0.151 µM) | MIC [4]: 0.4 µg/mL (≈ 1.21 µM) | MIC [5]: 0.012 µg/mL (≈ 0.0362 µM) | MIC [6]: 0.1 µg/mL (≈ 0.302 µM) | MIC [7]: 0.4 µg/mL (≈ 1.21 µM) | MIC [8]: 0.4 µg/mL (≈ 1.21 µM)

CN1C(=O)CNc2ccc(OCCNC[C@@H]3CN(c4cnc5c(n4)NC(=O)CS5)C(=O)O3)nc21 [Compound 5, (R)-5-(((2-((4-methyl-3-oxo-1,2,3,4-tetrahydropyrido[2,3-b]pyrazin-6-yl)oxy)ethyl)amino)methyl)-3-(3-oxo-3,4-dihydro-2H-pyrazino[2,3-b][1,4]thiazin-6-yl)oxazolidin-2-one]
genotoxicity risk (in words) [1]: completely devoid of any genotoxicity risk | micronucleus formation (in words) [1]: did not induce micronucleus formation | % (in-vitro micronucleus assay) ([1]; Chinese hamster): 0.5% | In vitro micronucleus forming concentration ([1]; Chinese hamster): >1000 µM | IC50 [2]: > 300 µM | MIC [3]: 0.06 µg/mL (≈ 0.123 µM) | MIC [4]: 0.125 µg/mL (≈ 0.257 µM) | MIC [5]: 0.03 µg/mL (≈ 0.0617 µM) | MIC [6]: 1 µg/mL (≈ 2.06 µM) | MIC [7]: 0.06 µg/mL (≈ 0.123 µM) | MIC [8]: < 0.015 µg/mL

CN1C(=O)CNc2ccc(OCCNC[C@H]3CN(c4cnc5c(n4)NC(=O)CS5)C(=O)O3)nc21 [Compound 6, (S)-5-(((2-((4-methyl-3-oxo-1,2,3,4-tetrahydropyrido[2,3-b]pyrazin-6-yl)oxy)ethyl)amino)methyl)-3-(3-oxo-3,4-dihydro-2H-pyrazino[2,3-b][1,4]thiazin-6-yl)oxazolidin-2-one]
genotoxicity risk (in words) [1]: completely devoid of any genotoxicity risk | micronucleus formation (in words) [1]: did not induce micronucleus formation | % (in-vitro micronucleus assay) ([1]; Chinese hamster): 0.4% | In vitro micronucleus forming concentration ([1]; Chinese hamster): >1000 µM | IC50 [2]: > 300 µM | MIC [3]: 0.06 µg/mL (≈ 0.123 µM) | MIC [4]: 0.06 µg/mL (≈ 0.123 µM) | MIC [5]: 0.06 µg/mL (≈ 0.123 µM) | MIC [6]: 0.5 µg/mL (≈ 1.03 µM) | MIC [7]: 0.06 µg/mL (≈ 0.123 µM) | MIC [8]: < 0.015 µg/mL

CN1C(=O)CNc2cc(F)c(OCCNC[C@@H]3CN(c4cnc5c(n4)NC(=O)CS5)C(=O)O3)nc21 [Compound 7, (R)-5-(((2-((7-fluoro-4-methyl-3-oxo-1,2,3,4-tetrahydropyrido[2,3-b]pyrazin-6-yl)oxy)ethyl)amino)methyl)-3-(3-oxo-3,4-dihydro-2H-pyrazino[2,3-b][1,4]thiazin-6-yl)oxazolidin-2-one]
genotoxicity risk (in words) [1]: completely devoid of any genotoxicity risk | % (in-vitro micronucleus assay) ([1]; Chinese hamster): 0.41% | In vitro micronucleus forming concentration ([1]; Chinese hamster): >1000 µM | IC50 [2]: > 300 µM | MIC [3]: 0.06 µg/mL (≈ 0.119 µM) | MIC [4]: 0.06 µg/mL (≈ 0.119 µM) | MIC [5]: 0.03 µg/mL (≈ 0.0595 µM) | MIC [6]: 1 µg/mL (≈ 1.98 µM) | MIC [7]: 0.03 µg/mL (≈ 0.0595 µM) | MIC [8]: < 0.015 µg/mL

CN1C(=O)CNc2cc(F)c(OCCNC[C@H]3CN(c4cnc5c(n4)NC(=O)CS5)C(=O)O3)nc21 [Compound 8, (S)-5-(((2-((7-fluoro-4-methyl-3-oxo-1,2,3,4-tetrahydropyrido [2,3-b]pyrazin-6-yl)oxy)ethyl)amino)methyl)-3-(3-oxo-3,4-dihydro-2H-pyrazino[2,3-b][1,4]thiazin-6-yl)oxazolidin-2-one]
genotoxicity risk (in words) [1]: completely devoid of any genotoxicity risk | % (in-vitro micronucleus assay) ([1]; Chinese hamster): 0.5% | In vitro micronucleus forming concentration ([1]; Chinese hamster): >1000 µM | IC50 [2]: > 300 µM | MIC [3]: 0.06 µg/mL (≈ 0.119 µM) | MIC [4]: 0.125 µg/mL (≈ 0.248 µM) | MIC [5]: 0.03 µg/mL (≈ 0.0595 µM) | MIC [6]: 1 µg/mL (≈ 1.98 µM) | MIC [7]: 0.06 µg/mL (≈ 0.119 µM) | MIC [8]: < 0.015 µg/mL

C[C@@H](O)[C@H]1C(=O)N2C(C(=O)O)=C(S[C@@H]3CN[C@H](C(=O)N(C)C)C3)[C@H](C)[C@H]12 [Meropenem, reference compound]
MIC 90 Citrobacter freundii [9]: 8 µg/mL (≈ 20.9 µM) | MIC 90 Escherichia coli [10]: 2 µg/mL (≈ 5.22 µM) | MIC 90 Pseudomonas aeruginosa [11]: 16 µg/mL (≈ 41.7 µM) | MIC 90 Serratia marcescens [12]: 16 µg/mL (≈ 41.7 µM) | MIC 90 Proteus mirabilis [13]: 1 µg/mL (≈ 2.61 µM) | MIC 90 Acinetobacter baumannii [14]: >8 µg/mL | MIC 90 Klebsiella aerogenes, K. oxytoca [15]: 16 µg/mL (≈ 41.7 µM) | MIC 90 Providencia rettgeri, P. stuartii [16]: 4 µg/mL (≈ 10.4 µM) | MIC 90 Morganella morganii [17]: 0.12 µg/mL (≈ 0.313 µM) | MIC 90 Klebsiella pneumoniae [18]: 16 µg/mL (≈ 41.7 µM) | MIC 90 Enterobacter cloacae [19]: 16 µg/mL (≈ 41.7 µM)

CO[C@@]12[C@H](COC(N)=O)C3=C(C(=O)C(C)=C(N)C3=O)N1C[C@@H]1N[C@@H]12 [Mitomycin C, reference compound]
% (in-vitro micronucleus assay) ([1]; CHO-K1 cells): 1.98% | In vitro micronucleus forming concentration ([1]; CHO-K1 cells): 0.300 µM
